Biological target: T1, recombinant human GR (Homo sapiens, UniProt P04150)
T1 construct: purchased Panvera/Invitrogen P2812 (kit P2893)
T1 sequence (P04150 1-777): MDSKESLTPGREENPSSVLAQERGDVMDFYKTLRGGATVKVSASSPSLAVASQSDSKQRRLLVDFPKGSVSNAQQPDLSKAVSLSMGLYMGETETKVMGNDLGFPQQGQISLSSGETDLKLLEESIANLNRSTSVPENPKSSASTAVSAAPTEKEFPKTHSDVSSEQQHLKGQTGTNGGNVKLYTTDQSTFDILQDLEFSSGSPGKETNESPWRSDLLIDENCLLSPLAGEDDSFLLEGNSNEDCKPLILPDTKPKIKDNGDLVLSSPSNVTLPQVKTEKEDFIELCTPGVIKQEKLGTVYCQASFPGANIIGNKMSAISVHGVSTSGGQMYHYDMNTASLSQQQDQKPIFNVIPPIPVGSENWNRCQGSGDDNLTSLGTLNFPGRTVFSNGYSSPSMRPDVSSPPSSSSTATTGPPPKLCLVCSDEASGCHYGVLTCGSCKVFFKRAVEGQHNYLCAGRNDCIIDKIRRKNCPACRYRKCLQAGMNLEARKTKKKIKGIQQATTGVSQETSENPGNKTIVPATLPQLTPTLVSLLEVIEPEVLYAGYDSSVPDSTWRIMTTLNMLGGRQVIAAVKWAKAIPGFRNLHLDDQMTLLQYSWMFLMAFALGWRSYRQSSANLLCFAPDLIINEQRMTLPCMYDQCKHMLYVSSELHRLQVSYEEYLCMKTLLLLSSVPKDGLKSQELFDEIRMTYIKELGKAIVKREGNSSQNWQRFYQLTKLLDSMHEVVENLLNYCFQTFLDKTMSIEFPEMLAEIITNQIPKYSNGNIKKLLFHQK
Experiment: Human Glucocorticoid Receptor (GR) Assay (fluorescence polarization, Panvera/Invitrogen kit)
Conditions: GS Red tracer, 2 hours at room temperature, 100% control 10 μM Dexamethasone, read-out: Inhibition of GR binding, IC50
Procedure: Human Glucocorticoid Receptor (GR) Assay The assay is based on a commercial kit from Panvera/Invitrogen (Part number P2893). The assay technology is fluorescence polarization. The kit utilises recombinant human GR (Panvera, Part number P2812), a Fluoromone™ labelled tracer (GS Red, Panvera, Part number P2894) and a Stabilizing Peptide 10× (Panvera, Part number P2815). The GR and Stabilizing Peptide reagents are stored at −70° C. while the GS Red is stored at −20° C. Also included in the kit are 1M DTT (Panvera, Part number P2325, stored at −20° C.) and GR Screening buffer 10× (Panvera, Part number P2814, stored at −70° C. initially but once thawed stored at room temperature). Avoid repeated freeze/thaws for all reagents. The GR Screening buffer 10× comprises 100 mM potassium phosphate, 200 mM sodium molybdate, 1 mM EDTA and 20% DMSO. Test compounds (1 μL) and controls (1 μL) in 100% DMSO were added to black polystyrene 384-well plates (Greiner low volume black flat-bottom, part number 784076). 0% control was 100% DMSO and 100% control was 10 μM Dexamethasone. Background solution (8 μL; assay buffer 10×, Stabilizing Peptide, DTT and ice cold MQ water) was added to the background wells. GS Red solution (7 μL; assay buffer 10×, Stabilizing Peptide, DTT, GS Red and ice cold water) was added to all wells except background wells. GR solution (7 μL; assay buffer 10×, Stabilizing Peptide, DTT, GR and ice cold water) was added to all wells. The plate was sealed and incubated in a dark at room temperature for 2 hours. The plate was read in an Analyst plate reader (LJL Biosystems/Molecular Devices Corporation) or other similar plate reader capable of recording fluorescence polarization (excitation wavelength 530 nm, emission wavelength 590 nm and a dichroic mirror at 561 nm).

Structure (SMILES) | IC50 [nM]
C[C@]12C=CC(=O)C=C1[C@@H](F)C[C@H]1[C@@H]3C[C@H]4OC(c5ccco5)O[C@@]4(C(=O)SCC#N)[C@@]3(C)C[C@H](O)[C@@]12F (stereo partly shown) [Example 1] | 1.2
C[C@]12C=CC(=O)C=C1[C@@H](F)C[C@H]1[C@@H]3C[C@H]4OC(c5ccco5)O[C@@]4(C(=O)SCC#CCO)[C@@]3(C)C[C@H](O)[C@@]12F (stereo partly shown) [Example 2] | 1.2
CSC(=O)[C@@]12OC(c3ccc(F)cc3F)O[C@@H]1C[C@H]1[C@@H]3C[C@H](F)C4=CC(=O)C=C[C@]4(C)[C@@]3(F)[C@@H](O)C[C@@]12C (stereo partly drawn) [Example 5, S-Methyl (4aS,4bR,5S,6aS,6bS,9aR,10aS,10bS,12S)-8-(2,4-difluorophenyl)-4b,12-difluoro-5-hydroxy-4a,6a-dimethyl-2-oxo-2,4a,4b,5,6,6a,9a,10,10a,10b,11,12-dodecahydro-6bH-naphtho[2′,1′:4,5]indeno[1,2-d][1,3]dioxole-6b-carbothioate] | 1.1
C[C@]12C=CC(=O)C=C1[C@@H](F)C[C@H]1[C@@H]3C[C@H]4OC(c5ccc(F)cc5F)O[C@@]4(C(=O)SCF)[C@@]3(C)C[C@H](O)[C@@]12F (stereo partly drawn) [Example 6, S-(Fluoromethyl)(4aS,4bR,5S,6aS,6bS,9aR,10aS,10bS,12S)-8-(2,4-difluorophenyl)-4b,12-difluoro-5-hydroxy-4a,6a-dimethyl-2-oxo-2,4a,4b,5,6,6a,9a,10,10a,10b,11,12-dodecahydro-6bH-naphtho[2′,1′:4,5]indeno[1,2-d][1,3]dioxole-6b-carbothioate] | 1.2
Cc1ccc([C@H]2O[C@@H]3C[C@H]4[C@@H]5C[C@H](F)C6=CC(=O)C=C[C@]6(C)[C@@]5(F)[C@@H](O)C[C@]4(C)[C@]3(C(=O)SCF)O2)o1 [Example 7, S-(Fluoromethyl)(4aS,4bR,5S,6aS,6bS,8S,9aR,10aS,10bS,12S)-4b,12-difluoro-5-hydroxy-4a,6a-dimethyl-8-(5-methyl-2-furyl)-2-oxo-2,4a,4b,5,6,6a,9a,10,10a,10b,11,12-dodecahydro-6bH-naphtho[2′,1′:4,5]indeno[1,2-d][1,3]dioxole-6b-carbothioate] | 1
CSC(=O)[C@@]12OC(c3ccc(C)o3)O[C@@H]1C[C@H]1[C@@H]3C[C@H](F)C4=CC(=O)C=C[C@]4(C)[C@@]3(F)[C@@H](O)C[C@@]12C (stereo partly drawn) [Example 8, S-Methyl (4aS,4bR,5S,6aS,6bS,9aR,10aS,10bS,12S)-4b,12-difluoro-5-hydroxy-4a,6a-dimethyl-8-(5-methyl-2-furyl)-2-oxo-2,4a,4b,5,6,6a,9a,10,10a,10b,11,12-dodecahydro-6bH-naphtho[2′,1′:4,5]indeno[1,2-d][1,3]dioxole-6b-carbothioate] | 1.9
Cc1ccc(C2O[C@@H]3C[C@H]4[C@@H]5C[C@H](F)C6=CC(=O)C=C[C@]6(C)[C@@]5(F)[C@@H](O)C[C@]4(C)[C@]3(C(=O)SCC#N)O2)o1 (stereo partly drawn) [Example 10, S-(Cyanomethyl)(4aS,4bR,5S,6aS,6bS,9aR,10aS,10bS,12S)-4b,12-difluoro-5-hydroxy-4a,6a-dimethyl-8-(5-methyl-2-furyl)-2-oxo-2,4a,4b,5,6,6a,9a,10,10a,10b,11,12-dodecahydro-6bH-naphtho[2′,1′:4,5]indeno[1,2-d][1,3]dioxole-6b-carbothioate] | 1.1
C[C@]12C=CC(=O)C=C1[C@@H](F)C[C@H]1[C@@H]3C[C@H]4OC(c5ccc(C(F)(F)F)o5)O[C@@]4(C(=O)SCF)[C@@]3(C)C[C@H](O)[C@@]12F (stereo partly drawn) [Example 14, S-(Fluoromethyl)(4aS,4bR,5S,6aS,6bS,9aR,10aS,10bS,12S)-4b,12-difluoro-5-hydroxy-4a,6a-dimethyl-2-oxo-8-[5-(trifluoromethyl)-2-furyl]-2,4a,4b,5,6,6a,9a,10,10a,10b,11,12-dodecahydro-6bH-naphtho[2′,1′:4,5]indeno[1,2-d][1,3]dioxole-6b-carbothioate] | 1.2
C[C@]12C=CC(=O)C=C1[C@@H](F)C[C@H]1[C@@H]3C[C@H]4OC(c5cccs5)O[C@@]4(C(=O)SCF)[C@@]3(C)C[C@H](O)[C@@]12F (stereo partly drawn) [Example 15, S-(Fluoromethyl)(4aS,4bR,5S,6aS,6bS,9aR,10aS,10bS,12S)-4b,12-difluoro-5-hydroxy-4a,6a-dimethyl-2-oxo-8-(2-thienyl)-2,4a,4b,5,6,6a,9a,10,10a,10b,11,12-dodecahydro-6bH-naphtho[2′,1′:4,5]indeno[1,2-d][1,3]dioxole-6b-carbothioate] | 1

Stronger by IC50, values ahead:

IC50 [nM] | Structure (SMILES)
0.88 | COc1ccc([C@H]2O[C@@H]3C[C@H]4[C@@H]5CCC6=CC(=O)C=C[C@]6(C)[C@H]5[C@@H](O)C[C@]4(C)[C@]3(C(=O)SC)O2)c(F)c1 (single isomer, unassigned) [Example 38 (8S)]
0.92 | C[C@]12C=CC(=O)C=C1[C@@H](F)C[C@H]1[C@@H]3C[C@H]4OC(c5ccco5)O[C@@]4(C(=O)SCF)[C@@]3(C)C[C@H](O)[C@@]12F (stereo partly shown) [Example 3]
0.96 | CSC(=O)[C@@]12O[C@@H](c3cccs3)O[C@@H]1C[C@H]1[C@@H]3C[C@H](F)C4=CC(=O)C=C[C@]4(C)[C@@]3(F)[C@@H](O)C[C@@]12C [Example 4, S-Methyl (4aS,4bR,5S,6aS,6bS,8S,9aR,10aS,10bS,12S)-4b,12-difluoro-5-hydroxy-4a,6a-dimethyl-2-oxo-8-(2-thienyl)-2,4a,4b,5,6,6a,9a,10,10a,10,11,12-dodecahydro-6bH-naphtho[2′,1′:4,5]indeno[1,2-d][1,3]dioxole-6b-carbothioate]
0.57 | C[C@]12C=CC(=O)C=C1[C@@H](F)C[C@H]1[C@@H]3C[C@H]4OC(c5cccs5)O[C@@]4(C(=O)SCC#N)[C@@]3(C)C[C@H](O)[C@@]12F (stereo partly drawn) [Example 9, S-(Cyanomethyl)(4aS,4bR,5S,6aS,6bS,9aR,10aS,10bS,12S)-4b,12-difluoro-5-hydroxy-4a,6a-dimethyl-2-oxo-8-(2-thienyl)-2,4a,4b,5,6,6a,9a,10,10a,10b,11,12-dodecahydro-6bH-naphtho[2′,1′:4,5]indeno[1,2-d][1,3]dioxole-6b-carbothioate]
0.59 | C[C@]12C=CC(=O)C=C1[C@@H](F)C[C@H]1[C@@H]3C[C@H]4OC(c5ccc(Cl)o5)O[C@@]4(C(=O)SCF)[C@@]3(C)C[C@H](O)[C@@]12F (stereo partly drawn) [Example 11, S-(Fluoromethyl)(4aS,4bR,5S,6aS,6bS,9aR,10aS,10bS,12S)-8-(5-chloro-2-furyl)-4b,12-difluoro-5-hydroxy-4a,6a-dimethyl-2-oxo-2,4a,4b,5,6,6a,9a,10,10a,10b,11,12-dodecahydro-6bH-naphtho[2′,1′:4,5]indeno[1,2-d][1,3]dioxole-6b-carbothioate]
0.86 | C[C@]12C=CC(=O)C=C1[C@@H](F)C[C@H]1[C@@H]3C[C@H]4OC(c5cc6ccccc6o5)O[C@@]4(C(=O)SCF)[C@@]3(C)C[C@H](O)[C@@]12F (stereo partly drawn) [Example 12, S-(Fluoromethyl)(4aS,4bR,5S,6aS,6bS,9aR,10aS,10bS,12S)-8-(1-benzofuran-2-yl)-4b,12-difluoro-5-hydroxy-4a,6a-dimethyl-2-oxo-2,4a,4b,5,6,6a,9a,10,10a,10b,11,12-dodecahydro-6bH-naphtho[2′,1′:4,5]indeno[1,2-d][1,3]dioxole-6b-carbothioate]
0.55 | Cc1ccsc1C1O[C@@H]2C[C@H]3[C@@H]4C[C@H](F)C5=CC(=O)C=C[C@]5(C)[C@@]4(F)[C@@H](O)C[C@]3(C)[C@]2(C(=O)SCF)O1 (stereo partly drawn) [Example 13, S-(Fluoromethyl)(4aS,4bR,5S,6aS,6bS,9aR,10aS,10bS,12S)-4b,12-difluoro-5-hydroxy-4a,6a-dimethyl-8-(3-methyl-2-thienyl)-2-oxo-2,4a,4b,5,6,6a,9a,10,10a,10b,11,12-dodecahydro-6bH-naphtho[2′,1′:4,5]indeno[1,2-d][1,3]dioxole-6b-carbothioate]
